This note sets out measurements from patent US7012128B2, “Interaction between cyclin D1 and steroid receptor co-activators and uses thereof in assays” (TopoTarget UK Limited, priority 1998, dated 2006).

In one test the test system is wild type ER. The test is described as follows: ERE-TATA-luciferase transactivation of wild type ER in COS-7 cells. Format: cell-based. Particulars: COS-7, wild type ER, presence of ligand. On the procedure: FIG. 1. Mapping of the region of cyclin D1 required for ER-mediated transactivation. • (A) The effect of cyclin D1 deletion mutants on ER activation in the presence of ligand. The cyclin D1 derivatives used in this study are shown in the left panel; right side of Figure represents the relative capacity of the mutants to potentiate ERE-dependent transcription. ER-negative COS-7 cells were transfected with expression vectors for wild type ER (200 ng), cyclin D1 or cyclin D1 mutants (2.5 μg), an internal control §-galactosidase plasmid (0.5 μg) and an ERE-TATA-luciferase reporter (3 μg). The effect on ER transactivation of wild type cyclin D1 was set to 100%. These studies were performed in three separate experiments and expressed as mean values with standard deviation less then […]. The alignment of leucine-rich motif of ER with D-type cyclins are shown on the bottom; the leucine-rich motif in cyclin D1 is indicated as a dark box. The identifiers for the sequences shown are as follows: Cyclin D1 (SEQ ID NO:11), Estrogen receptor (SEQ ID NO:12), the Cyclin D2 (SEQ ID NO:13), and the Cyclin D3 (SEQ ID NO:14). • (B) ER activation by D-type cyclins, cyclin D1 L254/255A point mutant (D1-LALA) and SRC-1 in the presence of ligand. COS-7 cells were transfected with D-type cyclin expression vectors, cyclin D1 Leucine-to-Alanine point mutant (D1-LALA) or SRC-1 expression vector together with wild type ER expression vector, an ERE-TATA-luciferase reporter plasmid and the internal control β-galactosidase construct. Data are expressed as relative luciferase activity compared with basal ERE-luciferase activity of wild type ER and are normalized for transfection efficiencies.
FIG. 3. Role of coactivators in cyclin D1—induced transactivation. • (A) Effect of a dominant negative form of SRC-1 (SRC1-DN) on ER transactivation. SRC1-DN encoding amino acids 1245-1441 of SRC-1 (1, 2.5 and 5 μg) was introduced by transient transfection together with wild type ER (200 ng) and was tested for its ability to modulate ERE-dependent transcription. • (B) Effect of SRCI-DN on SRC-1 and TIF 2 mediated ER transactivation. SRC-1 (3 μg) or TIF-2 (3 μg) were transfected with SRC1-DN (3 μg) and tested for ER transactivation. • (C) Effect of SRC1-DN on cyclin D1-induced transactivation of ER 1-535 mutant. Cyclin D1 was cotransfected with SRC1-DN (1, 2.5, 5 μg) and tested for its effect on an ER harboring a deletion of coactivator binding site in helix 12 (ER 1-535). • (D) Effect of SRC1-DN on cyclin D1-induced transactivation of ER L543/544A mutant. Cyclin D1 and SRC1-DN (1, 2.5, 5 gg) were transfected and tested for the activity of ER helix 12 point mutant (ER L543/544A). The transient transfections (A-C) were performed in COS-7 cells, which were maintained in DMEM with 10 nM ligand. The relative activity was calculated by normalizing to the internal control and was divided by luciferase activity of ER (mutant) in the presence of ligand. The transfection for each set of conditions were done at least in four independent experiments and expressed as average ±SD.
To study how cyclin D1 activates ER, cyclin D1 deletion mutants were tested for their effect on ER-transactivation. COS-7 cells were transfected with cyclin D1 mutants, together with ER and a luciferase reporter gene construct driven by a minimal TATA promoter linked to an estrogen response element (ERE). […] This part of the protein is not involved in CDK interaction and is poorly conserved among the different cyclins. […] To test the relevance of this leucine-rich domain of cyclin D1 in ER activation, a cyclin D1 mutant was constructed in which leucines 254 and 255 were mutated to alanines (D1 L254/255A). This mutation in cyclin D1 is similar to the mutation in ER (ER L543/544A) that interferes with coactivator binding to AF-2 (Danielian et al., 1992). […]

The target of the next test is T1, ER (Homo sapiens, UniProt P03372).
T1 sequence (P03372 1-595): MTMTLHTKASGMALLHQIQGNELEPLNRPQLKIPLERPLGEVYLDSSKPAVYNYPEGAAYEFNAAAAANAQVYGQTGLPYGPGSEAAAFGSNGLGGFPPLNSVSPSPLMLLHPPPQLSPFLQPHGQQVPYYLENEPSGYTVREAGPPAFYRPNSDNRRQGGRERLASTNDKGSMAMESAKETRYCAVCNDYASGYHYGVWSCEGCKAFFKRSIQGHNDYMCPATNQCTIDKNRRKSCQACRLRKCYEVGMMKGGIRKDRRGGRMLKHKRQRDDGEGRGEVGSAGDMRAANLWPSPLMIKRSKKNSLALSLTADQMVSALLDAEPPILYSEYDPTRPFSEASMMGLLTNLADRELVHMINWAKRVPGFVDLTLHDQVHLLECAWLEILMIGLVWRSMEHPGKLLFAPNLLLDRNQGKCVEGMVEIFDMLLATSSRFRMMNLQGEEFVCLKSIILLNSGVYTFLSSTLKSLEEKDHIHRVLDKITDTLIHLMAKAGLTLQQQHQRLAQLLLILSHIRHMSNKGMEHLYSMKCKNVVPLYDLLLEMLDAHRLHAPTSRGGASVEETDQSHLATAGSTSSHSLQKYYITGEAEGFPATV
The test is described as follows: ER activation, ERE-reporter gene, in T47D cells. Format: cell-based. Details: T47D and MCF-7, which contain endogenous wild type ER; endogenous in cells; host or cells: MCF-7; T47D. The following applies: relative low levels of cyclin D1, 17β-estradiol enriched medium. An excerpt: The ER-containing T47D and MCF-7 breast cancer cells were maintained in 17β-estradiol enriched medium with 10%fetal calf serum after cotransfection with a cyclin D1 L254/255A mutant expression vector and an ERE-reporter gene for testing its effect on ER activation (left panel). ER transactivation in the absence of co-expression of the cyclin D1 mutant was set at 100%.
To get more insight in the role of cyclin D1 in ER transactivation in breast cancers with elevated levels of cyclin D1, we have tested the effect of the mutant cyclin D1 L254/255A on ER activation in two different breast cancer cell lines. This cyclin D1 mutant does bind to ER, but fails both to interact with SRC-1 as shown above and consequently fails to activate ER (FIG. 1B). Therefore, this mutant can act as a dominant negative in cyclin D1-mediated ER transactivation as it binds to ER and fails to recruit coactivators. We tested the effect of this cyclin D1 mutant on ER activation in two breast cancer cell lines, T47D and MCF-7, which contain endogenous wild type ER, but differ in their cyclin D1 protein levels (FIG. 6). […] In contrast, in MCF-7, which contain relative high levels of cyclin D1 (FIG. 6), the cyclin D1 mutant inhibited up to 50% of ER activity. Thus, this dominant negative cyclin D1 mutant preferentially interferes with ER activation in breast cancer cells that have high levels of cyclin D1 protein.
In general terms: Reporter assays use an easily measured gene product as a stand-in for the process of interest.

For the substance “Cyclin D1-LALA: cyclin D1 mutant in which leucines 254 and 255 were mutated to alanines; dominant negative”, the ER transactivation capacity entry in the test with wild type ER is recorded as “virtually unable to activate wild type ER”. Besides, in the test with ER, the “inhibition of ER activity” value is “slight inhibition”.
